Measurements: patent US20180354980A1, “NOVEL TRITERPENE-GLYCOSIDES AS SWEETENERS OR SWEETENER ENHANCER” (Analyticon Discovery GmbH, priority 2015, published 2018)

Legend:
[1] = test system: panel of 4 panelists; experiment: Organoleptic test of the compounds against sucrose and Pterocaryoside A; format: in vivo; set-up: key to sweetness compared to sucrose: 3: sweeter than the control solution; 2: sweetness comparable with the control solution; 1: less sweet than the control solution but still sweet; settings: for sweetness compared to sucrose: 0.4 mg/ml (400 ppm) in non-carbonated mineral water vs sucrose 20 mg/ml, panel of 4 panelists; for comment (bitter off taste): 0.4 mg/ml (400 ppm) in non-carbonated mineral water, compared with Pterocaryoside A
Description: (§1) The isolated pure compounds were dissolved in non-carbonated mineral water (“Fonsana Quelle”) in a concentration of 0.4 mg/ml (400 ppm). The sweet taste of each sample was compared by a panel of 4 panelists with a solution of sucrose in a concentration of 20 mg/ml.

[2] = in vivo; cited from earlier work
[3] = test system: panel; settings: ammonium salt; panel rating; cited from earlier work
[4] = Solubility in non-carbonated mineral water at the test concentration; format: physicochemical; settings: 0.4 mg/ml in non-carbonated mineral water
Description: as §1

## C=C(C)C(O)C(O)CC(C)(O)C1CCC2(C)C1C(O[C@@H]1OCC(O)[C@H](O)[C@H]1O)CC1C(C)(CCC(=O)O)C(C(=C)C)CCC12C (stereo in doubt) [Compound D, 3-(6,9a,9b-trimethyl-7-(prop-1-en-2-yl)-3-(2,4,5-trihydroxy-6-methylhept-6-en-2-yl)-4-((2S,3R,4S,5S)-3,4,5-trihydroxytetrahydro-2H-pyran-2-yloxy)dodecahydro-1H-cyclopenta[a]naphthalen-6-yl)propanoic acid]
[1]
  sweetness compared to sucrose: 3
  comment (bitter off taste): less bitter than Pterocaryoside A

## C=C(C)C1CCC2(C)C(CC(O[C@@H]3OC[C@H](O)[C@H](O)[C@H]3O)C3C(C4(C)CCC(C(C)(C)O)O4)CCC32C)C1(C)CCC(=O)O (stereo partly drawn) [Compound A, 3-(3-(5-(2-hydroxypropan-2-yl)-2-methyltetrahydrofuran-2-yl)-6,9a,9b-trimethyl-7-(prop-1-en-2-yl)-4-((2S,3R,4S,5S)-3,4,5-trihydroxytetrahydro-2H-pyran-2-yloxy)dodecahydro-1H-cyclopenta[a]naphthalen-6-yl)propanoic acid]
[1]
  sweetness compared to sucrose: 3
  comment (bitter off taste): less bitter than Pterocaryoside A

## C=C(C)C(O)CCC(C)(O)C1CCC2(C)C1C(OC1OC(COC(C)=O)C(O)C1O)CC1C(C)(CCC(=O)O)C(C(=C)C)CCC12C (stereo not drawn) [Compound B, 3-(4-(5-(acetoxymethyl)-3,4-dihydroxytetrahydrofuran-2-yloxy)-3-(2,5-dihydroxy-6-methylhept-6-en-2-yl)-6,9a,9b-trimethyl-7-(prop-1-en-2-yl)dodeca hydro-1H-cyclopenta[a]naphthalen-6-yl)propanoic acid]
[1]
  sweetness compared to sucrose: 1
  comment (bitter off taste): slightly bitter off taste comparable to

## C=C(C)C(O)C(O)CC(C)(O)C1CCC2(C)C1C(O[C@@H]1O[C@H](C)[C@@H](O)[C@H](O)[C@H]1O)CC1C(C)(CCC(=O)O)C(C(=C)C)CCC12C (stereo partly drawn) [Compound C, 3-(6,9a,9b-trimethyl-7-(prop-1-en-2-yl)-3-(2,4,5-trihydroxy-6-methylhept-6-en-2-yl)-4-((2R,3R,4S,5S,6R)-3,4,5-trihydroxy-6-methyltetrahydro-2H-pyran-2-yloxy)dodecahydro-1H-cyclopenta[a]naphthalen-6-yl)propanoic acid]
[1]
  sweetness compared to sucrose: 3
  comment (bitter off taste): less bitter than Pterocaryoside A

## C=C(C)C1CCC2(C)C(CC(O[C@@H]3OC[C@H](O)[C@H](O)[C@H]3O)C3C(C(C)=O)CCC32C)C1(C)CCC(=O)O (stereo partly drawn) [Compound E, 3-(3-acetyl-6,9a,9b-trimethyl-7-(prop-1-en-2-yl)-4-((2S,3R,4S,5S)-3,4,5-trihydroxytetrahydro-2H-pyran-2-yloxy)dodecahydro-1H-cyclopenta[a]naphthalen-6-yl)propanoic acid]
[1]
  sweetness compared to sucrose: 3
  comment (bitter off taste): less bitter than Pterocaryoside A

## C[C@H](CC[C@@H](O[C@@H]1O[C@H](CO[C@@H]2O[C@H](CO)[C@@H](O)[C@H](O)[C@H]2O)[C@@H](O)[C@H](O)[C@H]1O[C@@H]1O[C@H](CO)[C@@H](O)[C@H](O)[C@H]1O)C(C)(C)O)[C@H]1CC[C@@]2(C)[C@@H]3CC=C4[C@@H](CC[C@H](O[C@@H]5O[C@H](CO)[C@@H](O[C@@H]6O[C@H](CO)[C@@H](O)[C@H](O)[C@H]6O)[C@H](O)[C@H]5O)C4(C)C)[C@]3(C)[C@H](O)C[C@]12C [iso-mogroside V]
[2]
  aftertaste: certain bitter aftertaste

## C[C@H](CC[C@@H](O[C@@H]1O[C@H](CO[C@@H]2O[C@H](CO)[C@@H](O)[C@H](O)[C@H]2O)[C@@H](O)[C@H](O)[C@H]1O[C@@H]1O[C@H](CO)[C@@H](O)[C@H](O)[C@H]1O)C(C)(C)O)[C@H]1CC[C@@]2(C)[C@@H]3CC=C4[C@@H](CC[C@H](O[C@@H]5O[C@H](CO[C@@H]6O[C@H](CO)[C@@H](O)[C@H](O)[C@H]6O)[C@@H](O)[C@H](O)[C@H]5O)C4(C)C)[C@]3(C)[C@H](O)C[C@]12C [mogroside V]
[2]
  aftertaste: certain bitter aftertaste

## Pterocaryoside A
[3]
  off-taste: persistent, mildly bitter, off-taste
  onset of sweetness: instantaneous
  sweetness relative to sucrose: about 50 times sweeter than 2% sucrose
[1]
  comment (bitter off taste): strong bitter and slightly hot off-taste
[1]; solution at desired 0.4 mg/ml, not completely dissolved, vs sucrose 20 mg/ml
  sweetness compared with the sucrose solution (in words): comparable to the sweetness of the sucrose solution
[4]
  solubility at the desired concentration: not completely soluble

## Pterocaryoside B
[3]
  off-taste: persistent, mildly bitter, off-taste
  onset of sweetness: instantaneous
  sweetness relative to sucrose: about 100 times sweeter than 2% sucrose
